Values of other authors as cited in publication PMC4067310, “From Pan-Reactive KV7 Channel Opener to Subtype Selective Opener/Inhibitor by Addition of a Methyl Group” (PLoS ONE, 2014).
Substitutions are numbered along the chain they refer to.

Key:
KV7.4 = target: T1, KV7.4 (Homo sapiens, UniProt P56696); set-up: method as in PMID 20011514; conditions: +40 mV; cited from earlier work
T1 construct: expressed in transfected cells; host or cells: Xenopus laevis oocytes injected with cRNA (pGEM-HE vector)
T1 sequence (P56696 1-695): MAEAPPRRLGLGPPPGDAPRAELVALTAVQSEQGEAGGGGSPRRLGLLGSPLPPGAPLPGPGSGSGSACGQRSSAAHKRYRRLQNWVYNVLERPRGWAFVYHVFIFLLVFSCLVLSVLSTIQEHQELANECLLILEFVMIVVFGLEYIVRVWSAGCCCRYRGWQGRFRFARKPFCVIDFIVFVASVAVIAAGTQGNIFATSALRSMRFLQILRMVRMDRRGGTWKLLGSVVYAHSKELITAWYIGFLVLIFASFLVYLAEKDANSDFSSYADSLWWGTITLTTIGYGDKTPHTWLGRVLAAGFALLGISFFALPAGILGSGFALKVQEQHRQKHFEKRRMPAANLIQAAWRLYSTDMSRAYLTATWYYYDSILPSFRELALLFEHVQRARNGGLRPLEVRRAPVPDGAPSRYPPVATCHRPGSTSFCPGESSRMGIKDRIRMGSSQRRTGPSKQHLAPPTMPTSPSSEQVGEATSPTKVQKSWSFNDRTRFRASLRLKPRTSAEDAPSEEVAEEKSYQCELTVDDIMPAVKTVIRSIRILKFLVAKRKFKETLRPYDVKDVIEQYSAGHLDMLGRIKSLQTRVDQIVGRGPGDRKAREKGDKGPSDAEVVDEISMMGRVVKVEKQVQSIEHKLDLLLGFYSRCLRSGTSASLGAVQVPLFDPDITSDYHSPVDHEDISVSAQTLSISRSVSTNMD

KV7.4-W242L = target: T2, KV7.4-W242L (Homo sapiens, UniProt P56696, W242L); conditions: cited from earlier work
T2 construct: expressed in transfected cells; host or cells: Xenopus laevis oocytes injected with cRNA (pGEM-HE vector)
T2 sequence (P56696 1-695 W242L): T1 sequence (P56696 1-695) with W242L

KV7.2-W236L = target: T3, KV7.2-W236L (Homo sapiens, UniProt O43526, W236L); set-up: method as in PMID 20011514; conditions: all activating effects lost; cited from earlier work
T3 construct: expressed in transfected cells; host or cells: Xenopus laevis oocytes injected with cRNA (pGEM-HE vector)
T3 sequence (O43526 whole entry W236L): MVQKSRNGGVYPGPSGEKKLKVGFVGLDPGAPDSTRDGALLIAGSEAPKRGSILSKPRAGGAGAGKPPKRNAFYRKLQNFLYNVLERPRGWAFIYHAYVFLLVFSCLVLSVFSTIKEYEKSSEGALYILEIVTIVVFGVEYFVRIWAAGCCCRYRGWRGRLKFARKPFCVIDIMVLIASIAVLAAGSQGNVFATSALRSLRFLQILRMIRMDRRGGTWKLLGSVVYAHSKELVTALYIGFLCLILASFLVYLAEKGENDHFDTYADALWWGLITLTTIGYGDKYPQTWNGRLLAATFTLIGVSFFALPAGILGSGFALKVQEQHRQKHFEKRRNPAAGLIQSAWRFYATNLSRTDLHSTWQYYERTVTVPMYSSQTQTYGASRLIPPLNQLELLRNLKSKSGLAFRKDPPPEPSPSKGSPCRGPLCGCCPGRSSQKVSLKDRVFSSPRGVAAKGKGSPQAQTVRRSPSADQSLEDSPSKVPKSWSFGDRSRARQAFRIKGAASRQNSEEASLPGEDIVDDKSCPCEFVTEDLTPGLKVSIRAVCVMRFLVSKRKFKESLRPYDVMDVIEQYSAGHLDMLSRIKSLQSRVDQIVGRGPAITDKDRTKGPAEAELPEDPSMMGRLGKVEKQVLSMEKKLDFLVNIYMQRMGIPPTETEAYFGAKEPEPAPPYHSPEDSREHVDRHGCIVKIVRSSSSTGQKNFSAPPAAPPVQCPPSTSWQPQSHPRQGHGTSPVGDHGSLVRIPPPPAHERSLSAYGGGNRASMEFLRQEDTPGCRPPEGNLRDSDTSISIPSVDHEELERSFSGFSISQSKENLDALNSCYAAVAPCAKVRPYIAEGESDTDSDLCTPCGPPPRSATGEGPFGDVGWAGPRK

In the case of `C[C@H](NC(=O)/C=C/c1ccccc1F)c1ccc2c(c1)N(CC1CC1)CCO2` [(S)-2], the “efficacy, current amplitude % of control” value (KV7.4) is listed as 1927 % of control, the “effect on KV7.4-W242L” value (KV7.4-W242L) is listed as “fully insensitive” and the “effect on KV7.2-W236L” value (KV7.2-W236L) is listed as “purely inhibitory”.
